From US20040253207A1, “Methods and compositions for prostate epithelial cell differentiation” (Barnes-Jewish Hospital, priority 2002, published 2004)
*: point of attachment. Decanoyl = CCCCCCCCCC(=O)*; CH2Cl = ClC*

Tests used:
Format in all cases: cell-based, human
[1] = tested on: proprotein convertases (PCs) in LNCaP, PC3 and DU145 cells; assay: Proprotein convertase activity assay (cleavage of fluorogenic substrate boc-RVRR-amc); conditions: 100 μM CMK for 24 hours
Description: For determination of cellular PC activity, 30,000 cells were seeded in 48-well plates for 24 hours. The next day, growth medium and CMK were added until a final concentration of 100 μM was reached. After a 24-hour incubation, media were replaced and cells were washed with PBS. Additional 48-well plates were prepared in the same manner for the determination of cell number which was used for normalization. 150 μl of assay medium which consists of RPMI 1640 with 0.25% Triton X-100 for permeabilization and boc-RVRR-amc (100 μM) as a fluorogenic substrate were added to each well. Fluorescence was measured at 360 nm excitation and 460 nm emission wavelengths after 4 h of substrate addition. The data were normalized to cell number. Human recombinant furin (Sigma, St. Louis, Mo.) was used for positive control.
PC activity in prostate cancer cells and inhibition of PC activity by CMK was next examined. LNCaP, PC3 and DU 145 cells were incubated in the presence or absence of 100 μM CMK for 24 hours. Thereafter, 100 μM fluorogenic substrate, boc-RVRR-amc, was added and cells were incubated for an additional four hours. PC activity was assayed by measuring the cleavage of the fluorogenic substrate.

[2] = tested on: PDF processing in LNCaP cells; assay: PC-dependent PDF processing in LNCaP cells, immunoblot for pro-PDF and mature PDF; conditions: various concentrations of CMK, 24 hours
Description: (§1) Cells (approximately 1×10^6 cells) were seeded in 100 mm cell culture dishes and cultured in RPMI 1640 supplemented with 10% fetal bovine serum at 5% CO2. Subconfluent cells were washed with phosphate buffered saline (PBS), lysed in lysis buffer (Cell Signaling Technology, Beverly, Mass.) and used for cell lysate. For the detection of PDF in conditioned media, subconfluent cells were serum-starved for 24 h. The serum free media were collected and precipitated with 10% trichloroacetic acid. After centrifugation, pellets were dissolved in the buffer which consisted of 8 M urea, 50 mM Tris (pH 8.0) and 0.1% NP-40. Samples were mixed in 5× Laemmli sample buffer with 2% beta-mercaptoethanol, subjected to electrophoresis on a 15% SDS-polyacrylamide gel, and transferred to PVDF membranes. Membranes were blocked with PBS containing 0.1% Tween 20 and 5% non-fat dry milk for 1 h at room temperature and incubated with the appropriate primary antibodies and antisera (1:500-2000) overnight at 4° C. After the membranes were washed three times with PBS containing 0.1% Tween 20, the membranes were incubated with appropriate horse-radish peroxidase-conjugate secondary antibodies (1:2000) for 1 h at 4° C. The protein bands were visualized by chemiluminescence using SuperSignal West Pico ECL kit (PIERCE, Rockford, Ill.). This protocol was used for the detection of PDF, cytokeratin and PSA.
PC-dependent PDF processing in LNCaP cells was also examined in the presence of CMK by immunoblotting for PDF. Cells were cultured and serum-starved with and without various concentrations of CMK for 24 hours. Cells and supernatants were electrophoresed on 15% SDS-PAGE. Immunoblots were performed with anti-pro-PDF antibody (˜40 kd pro-PDF form) and anti-PDF antisera (˜17 kd mature PDF form).

[3] = tested on: LNCaP cells; assay: Prostate epithelial cell differentiation markers (cytokeratin immunoblot), LNCaP; conditions: various concentrations of CMK, 72 hours, serum-free RPMI 1640
Description: as §1, with “PSA. […]” for “PSA.”

[4] = tested on: PSA expression in LNCaP cells; assay: DHT-stimulated PSA expression in LNCaP cells (anti-PSA immunoblot); conditions: various concentrations of CMK, 24 hours
Description: as §1, with “PSA. […]” for “PSA.”

With “decanoyl-Arg-Val-Lys-Arg-chloromethylketone (Decanoyl-RVKR-CH2Cl) [CMK]” the “PC activity (cleavage of boc-RVRR-amc)” value [1] was “inhibition of PCs”, the “cellular PDF” value ([2]; LNCaP cell lysate) was “did not affect” and the “PDF processing (mature PDF) in LNCaP-conditioned media” value ([2]; serum-starved) was “reduction of PDF processing in LNCaP-conditioned media in a dose-dependent manner”. For the same substance, the “pro-PDF in LNCaP-conditioned media” value ([2]; serum-starved) was “concomitant increase in pro-PDF”, the “expression of cytokeratin 8, 18 and 19” value [3] was “down-regulated” and the “expression of cytokeratin 14” value [3] was “upregulated in a dose-dependent manner”. For the same substance, the “levels of endogenous PSA” value ([4]; in the absence of DHT) was “not affected” and the “androgen-induced PSA expression” value ([4]; in the presence of DHT) was “inhibited”.
